Experimental data from US20250213581A1, “COMBINATION THERAPY OF A PI3K INHIBITOR AND KRAS INHIBITOR AND METHODS OF USE THEREOF” (Totus Medicines Inc., priority 2022, published 2025).

Columns and labels:
Experiment in all cases: Cell proliferation assay (CellTiter-Glo, 3 days), single agent
Type in all cases: cell-based
Conditions in all cases: 3 days treatment; read-out: Absolute IC50
[1] = tested on: HCC44 (Lung)
Experimental: (§1) Two duplicate plates were set up.
(§2) At day 0, 10 μL culture medium to each well for T0 reading. […] Compound I was diluted and 10 μL of each 10× compound I from working solutions for a concentration ranging from 10 μM to about 0.005 μM. Cisplatin was diluted to about 3.33 mM to about 150 nM.
(§3) IC50's were determined for each cell line.

[2] = tested on: SW756 (Cervix)
Experimental: as §1, §2, §3

[3] = tested on: NCI-H1373 (Lung)
Experimental: as §1, §2, §3

[4] = tested on: NCI-H23 (Lung)
Experimental: as §1, §2, §3

[5] = tested on: NCI-H358 (Lung)
Experimental: as §1, §2, §3

[6] = tested on: SW1463 (rectum)
Experimental: as §1, §2, §3

[7] = tested on: SW837 (Rectum)
Experimental: as §1, §2, §3

[8] = tested on: Calu-1 (Lung)
Experimental: as §1, §2, §3

[9] = tested on: NCI-H1792 (Lung)
Experimental: as §1, §2, §3

[10] = tested on: MIA PaCa-2 (Pancreas)
Experimental: as §1, §2, §3

[11] = tested on: NCI-H2122 (Lung)
Experimental: as §1, §2, §3

[12] = tested on: UM-UC-3 (bladder)
Experimental: as §1, §2, §3

[13] = tested on: KYSE-410 (HN/Esophagus)
Experimental: as §1, §2, §3

SMILES: N.N.[Cl][Pt][Cl] [Cisplatin, reference compound]
- IC50 [1]: 7.96 µM
- IC50 [2]: 10.3 µM
- IC50 [3]: 8.72 µM
- IC50 [4]: 3.58 µM
- IC50 [5]: 12.5 µM
- IC50 [6]: 12.2 µM
- IC50 [7]: 42.5 µM
- IC50 [8]: 10.2 µM
- IC50 [9]: 4.88 µM
- IC50 [10]: 7.03 µM
- IC50 [11]: 17.8 µM
- IC50 [12]: 1.86 µM
- IC50 [13]: 15.8 µM
